Target: T1, type H3 central histaminergic receptors (Mus musculus, UniProt P58406)
T1 construct: from tissue; host or cells: brain of living NMRI mice
Test: Cerebral doses of N^t-methylhistamine in the NMRI mouse (ex vivo, after oral administration)
Details: NMRI mice, brain two hours after treatment, vs carrier control
Method: The aim of this study, carried out according to the method of Taylor et al. (Biochem. Pharm., 1992, 44, 1261-1267), is to evaluate the ex vivo activity of the compounds of the present invention as type H3 central histaminergic receptor antagonists. […] An increase in the cerebral concentrations of N^t-methylhistamine signifies an increase in histamine turnover by blockade of the type H3 central histaminergic receptors.
NMRI mice (18-20 g) are treated via oral administration with the compounds of the present invention or with their carrier (20 ml/kg). Two hours after the pharmacological treatment, the animals are sacrificed, the brains are removed, frozen in liquid nitrogen, weighed and homogenised in 0.1N HClO4 at 4° C. The homogenates are centrifuged (15000 g, 17 min, 4° C.). The supernatants are recovered and divided into aliquots. The aliquots are frozen in liquid nitrogen and stored at −80° C. until their analysis.
Determination of the cerebral levels of N^t-methylhistamine is effected by capillary electrophoresis coupled with detection by laser-induced fluorescence (J. Chromatogr. A., 1996, 755, 99-115). The tissue levels of N^t-methylhistamine are expressed in ng/g of fresh brain. Comparison between the cerebral levels of N^t-methylhistamine of the animals treated with the carrier (control) and the animals treated with the compounds of the present invention (n=5/group) is effected by single factor variance analysis followed, if necessary, by a supplementary analysis (Dunnett's test).

T1 sequence (P58406 whole entry): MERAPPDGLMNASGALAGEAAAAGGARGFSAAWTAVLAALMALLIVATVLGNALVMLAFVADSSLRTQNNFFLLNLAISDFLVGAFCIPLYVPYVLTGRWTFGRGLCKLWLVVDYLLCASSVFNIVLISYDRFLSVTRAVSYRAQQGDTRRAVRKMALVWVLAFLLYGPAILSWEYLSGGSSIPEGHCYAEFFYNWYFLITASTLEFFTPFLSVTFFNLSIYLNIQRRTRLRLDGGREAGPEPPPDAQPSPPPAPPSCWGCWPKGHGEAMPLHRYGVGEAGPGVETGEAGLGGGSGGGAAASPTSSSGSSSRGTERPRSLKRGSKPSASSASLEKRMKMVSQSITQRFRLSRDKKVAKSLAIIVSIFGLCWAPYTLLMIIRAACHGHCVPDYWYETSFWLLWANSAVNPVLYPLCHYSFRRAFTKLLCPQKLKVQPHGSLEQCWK

Compound: CC(=O)Nc1ccc(OCCCN2CC3CCCC3C2)cc1.O=C(O)C(=O)O (centres unmarked) [Example 4, N-[4-(3-Hexahydrocyclopenta[c]pyrrol-2(1H)-ylpropoxy)-phenyl]acetamide oxalate]
- increase of the endogenous cerebral concentrations of N^t-methylhistamine (3 mg/kg p.o.): 52%

Compound: CNC(=O)c1ccc(OCCCN2CC3CCCC3C2)cc1 (centres unmarked) [Example 93, 4-[3-(Hexahydrocyclopenta[c]pyrrol-2(1H)-yl)propoxy]-N-methylbenzamide]
- increase of the endogenous cerebral concentrations of N^t-methylhistamine (3 mg/kg p.o.): 90%

Compound: N#Cc1ccc(OCCCN2CC3CCCC3C2)cc1.O=C(O)C(=O)O (centres unmarked) [Example 1, 4-(3-Hexahydrocyclopenta[c]pyrrol-2(1H)-ylpropoxy)benzonitrile oxalate]
- increase of the endogenous cerebral concentrations of N^t-methylhistamine (10 mg/kg p.o.): 92%

Compound: NC(=O)c1ccc(OCCCN2CC3CCCC3C2)cc1.O=C(O)C(=O)O (centres unmarked) [Example 22, 4-(3-Hexahydrocyclopenta[c]pyrrol-2(1H)-ylpropoxy)benzamide oxalate]
- increase of the endogenous cerebral concentrations of N^t-methylhistamine (3 mg/kg p.o.): 33%
- increase of the endogenous cerebral concentrations of N^t-methylhistamine (10 mg/kg p.o.): 85%
